Results as given in PubChem BioAssay AID1963861 (Molecular Pharmacology Branch, DTP, NCI, 2024).

Test system: 885724-159-R-J1-PDC KRAS PDC multicell spheroid viability
Experiment: Anticancer human tumor 885724-159-R-J1-PDC patient-derived pancreatic adenocarcinoma cell line growth inhibition [KRAS2]
Conditions: for IC50: curve of first compound; for viability, T/C: stronger effect = lower value
Description: Multicellular complex tumor spheroid response to RAS pathway inhibitors in combination with a targeted agents in patient-derived cell lines with oncogenic KRAS variants from multiple cancer types
A high-throughput screen of multi-cell type tumor spheroids was designed to identify active combinations of targeted small molecules and KRAS pathway inhibitors. Complex spheroids include a stromal component modeled by human endothelial cells (HUVEC) and fibroblasts modeled by human mesenchymal stem cells (MSCs). The concentration ranges selected for each drug and investigational agent were based upon clinically achievable concentrations if the clinical Cmax of the agent was known.
Compounds. The drugs and investigational agents: BI-3406 (NSC825286), BAY-293 (NSC824723), batoprotafib (TNO155; NSC825523), sotorasib (AMG 510; NSC818433), MRTX1257 (NSC819558), elimusertib (BAY 1895344; NSC800525), molibresib (GSK525762; NSC774829), temuterkib (LY3214996; NSC803410), venetoclax (NSC766270), alisertib (NSC759677), olaparib (NSC753686), talazoparib (NSC767125), erdafitinib (NSC781556), ipatasertib (NSC767898), cabozantinib (NSC761068), nintedanib (NSC756659), abemaciclib (NSC768073), docetaxel (NSC628503), trametinib (NSC758246), and sapanisertib (NSC764658) were obtained from the National Cancer Institute (NCI) Developmental Therapeutics Program Chemical Repository. The FDA-approved anticancer drug set is available from the Developmental Therapeutics Program. […] The stock solutions were prepared in dimethyl sulfoxide (DMSO, Sigma-Aldrich, St. Louis, MO, cat. D2650) at 800-fold the tested concentration and stored at -70 degrees C prior to their use. All drugs and investigational agents were tested over a range starting from a high concentration at or near the clinical Cmax and decreasing in half-log increments. If the clinical Cmax for an agent had not been determined, the highest concentration tested was 10 microM.
Cell Culture. All cells were maintained in an incubator at 37 degrees C and 5% CO2 with 95% humidity. The PDC lines were cultured according to standard operating procedures established by the NCI PDMR (https://pdmr.cancer.gov/sops/default.htm). Briefly, all PDCs were thawed and cultured in Matrigel-coated flasks prepared with a working solution of 1X Ham's F-12 nutrient mix, without supplementation (Invitrogen, Waltham, MA, cat. 11765054), 100 U/mL penicillin-streptomycin (Invitrogen, cat. 15140122), and 2.5% Matrigel (Corning Inc., Corning, NY, cat. 354248) for the first three passages. All PDCs were cultured in complete DMEM/F-12 media containing advanced DMEM/F-12 (Invitrogen, cat. 12634028), 4.9% defined fetal bovine serum, heat inactivated (HyClone Laboratories Inc., Logan, UT, cat. SH30070.03HI), 389 ng/mL hydrocortisone (Sigma-Aldrich, cat. H4001), 9.7 ng/mL human EGF recombinant protein (Invitrogen, cat. PHG0313), 23.4 microg/mL adenine (Sigma-Aldrich, cat. A2786), 97.3 U/mL penicillin-streptomycin (Invitrogen, cat. 15140122), 1.9 mM L-glutamine (Invitrogen, cat. 25030081), and 9.7 microM Y-27632 dihydrochloride (Tocris Bioscience, Bristol, United Kingdom, cat. 1254). The PDCs were cultured in complete DMEM/F12 media without 9.7 microM Y-27632 dihydrochloride for at least two passages prior to the screen. The established cell line HOP-62 was cultured in RPMI 1640 medium, HEPES (Invitrogen, cat. 22400105) with 10% defined fetal bovine serum (HyClone Laboratories Inc., cat. SH30070.03) and 2 mM L-glutamine (Invitrogen, cat. 25030081). The pooled donor HUVEC were cultured in endothelial cell growth medium 2 (PromoCell, Heidelberg, Germany, cat. C-22011) and the hMSC were cultured in mesenchymal stem cell growth medium 2 (PromoCell, cat. C-28009). For all experiments, HUVEC and hMSC were used at passages </=5, while the malignant cell lines were used at passages </=15. […]

[1] = second compound 0.1 µM, first compound 0.0316 µM
[2] = second compound 0.1 µM, first compound 0.1 µM
[3] = second compound 0.316 µM, first compound 0.0316 µM
[4] = second compound 0.316 µM, first compound 0.1 µM
[5] = second compound 1 µM, first compound 0.0316 µM
[6] = second compound 1 µM, first compound 0.1 µM
[7] = second compound 3.16 µM, first compound 0.0316 µM
[8] = second compound 3.16 µM, first compound 0.1 µM
[9] = second compound 10 µM, first compound 0.0316 µM
[10] = second compound 10 µM, first compound 0.1 µM
[11] = second compound 0.1 µM, first compound 0.316 µM
[12] = second compound 0.1 µM, first compound 1 µM
[13] = second compound 0.1 µM, first compound 3.16 µM
[14] = second compound 0.1 µM, first compound 10 µM
[15] = second compound 0.316 µM, first compound 0.316 µM
[16] = second compound 0.316 µM, first compound 1 µM
[17] = second compound 0.316 µM, first compound 3.16 µM
[18] = second compound 0.316 µM, first compound 10 µM
[19] = second compound 1 µM, first compound 0.316 µM
[20] = second compound 1 µM, first compound 1 µM
[21] = second compound 1 µM, first compound 3.16 µM
[22] = second compound 1 µM, first compound 10 µM
[23] = second compound 3.16 µM, first compound 0.316 µM
[24] = second compound 3.16 µM, first compound 1 µM
[25] = second compound 3.16 µM, first compound 3.16 µM
[26] = second compound 3.16 µM, first compound 10 µM
[27] = second compound 10 µM, first compound 0.316 µM
[28] = second compound 10 µM, first compound 1 µM
[29] = second compound 10 µM, first compound 3.16 µM
[30] = second compound 10 µM, first compound 10 µM
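Further: spheroids exposed to agents for 7 days before readout.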

Structure (SMILES) | IC50 (second compound 0.1 µM) | IC50 (second compound 0.316 µM) | IC50 (second compound 1 µM) | IC50 (second compound 3.16 µM) | IC50 (second compound 10 µM) | viability, T/C [1] | viability, T/C [2] | viability, T/C [3] | viability, T/C [4] | viability, T/C [5] | viability, T/C [6] | viability, T/C [7] | viability, T/C [8] | viability, T/C [9] | viability, T/C [10] | viability, T/C [11] | viability, T/C [12] | viability, T/C [13] | viability, T/C [14] | viability, T/C [15] | other results
CN(C)C/C=C/C(=O)Nc1cc2c(Nc3ccc(F)c(Cl)c3)ncnc2cc1O[C@H]1CCOC1 + C=CC(=O)N1CCN(c2nc(=O)n(-c3c(C)ccnc3C(C)C)c3nc(-c4c(O)cccc4F)c(F)cc23)C(C)C1 | > 100 nM | > 100 nM | > 100 nM | > 100 nM | > 100 nM | 90.8% | 79.9% | 92.6% | 86% | 93.7% | 90.8% | 101% | 89.4% | 66.2% | 69.4% | – | – | – | – | – | viability, T/C (second compound 0.1 µM, first compound 0.000316 µM): 116%; viability, T/C (second compound 0.1 µM, first compound 0.001 µM): 117%; viability, T/C (second compound 0.1 µM, first compound 0.00316 µM): 106%; viability, T/C (second compound 0.1 µM, first compound 0.01 µM): 95.4%; viability, T/C (second compound 0.316 µM, first compound 0.000316 µM): 124%; viability, T/C (second compound 0.316 µM, first compound 0.001 µM): 118%; viability, T/C (second compound 0.316 µM, first compound 0.00316 µM): 101%; viability, T/C (second compound 0.316 µM, first compound 0.01 µM): 101%; viability, T/C (second compound 1 µM, first compound 0.000316 µM): 130%; viability, T/C (second compound 1 µM, first compound 0.001 µM): 119%; viability, T/C (second compound 1 µM, first compound 0.00316 µM): 117%; viability, T/C (second compound 1 µM, first compound 0.01 µM): 110%; viability, T/C (second compound 3.16 µM, first compound 0.000316 µM): 114%; viability, T/C (second compound 3.16 µM, first compound 0.001 µM): 117%; viability, T/C (second compound 3.16 µM, first compound 0.00316 µM): 104%; viability, T/C (second compound 3.16 µM, first compound 0.01 µM): 97%; viability, T/C (second compound 10 µM, first compound 0.000316 µM): 89.4%; viability, T/C (second compound 10 µM, first compound 0.001 µM): 95%; viability, T/C (second compound 10 µM, first compound 0.00316 µM): 83.2%; viability, T/C (second compound 10 µM, first compound 0.01 µM): 78.3%
COC(=O)c1ccc2c(C(=Nc3ccc(N(C)C(=O)CN4CCN(C)CC4)cc3)c3ccccc3)c(O)[nH]c2c1 + C=CC(=O)N1CCN(c2nc(=O)n(-c3c(C)ccnc3C(C)C)c3nc(-c4c(O)cccc4F)c(F)cc23)C(C)C1 | 3150 nM | 2270 nM | 2070 nM | 2110 nM | 1540 nM | 109% | 111% | 105% | 109% | 113% | 111% | 106% | 110% | 89.7% | 70.4% | 102% | 103% | 49.8% | 1.26% | 102% | viability, T/C [16]: 104%; viability, T/C [17]: 28.1%; viability, T/C [18]: 0.55%; viability, T/C [19]: 110%; viability, T/C [20]: 98.6%; viability, T/C [21]: 21.9%; viability, T/C [22]: 0.74%; viability, T/C [23]: 105%; viability, T/C [24]: 95.7%; viability, T/C [25]: 25.1%; viability, T/C [26]: 0.65%; viability, T/C [27]: 79.1%; viability, T/C [28]: 69.9%; viability, T/C [29]: 17.2%; viability, T/C [30]: 0.39%
O=C(c1cc(Cc2n[nH]c(=O)c3ccccc23)ccc1F)N1CCN(C(=O)C2CC2)CC1 + C=CC(=O)N1CCN(c2nc(=O)n(-c3c(C)ccnc3C(C)C)c3nc(-c4c(O)cccc4F)c(F)cc23)C(C)C1 | > 10000 nM | > 10000 nM | > 10000 nM | > 10000 nM | > 10000 nM | 117% | 115% | 124% | 115% | 121% | 119% | 114% | 119% | 86% | 84.8% | 111% | 113% | 109% | 94.1% | 115% | viability, T/C [16]: 113%; viability, T/C [17]: 108%; viability, T/C [18]: 103%; viability, T/C [19]: 117%; viability, T/C [20]: 118%; viability, T/C [21]: 114%; viability, T/C [22]: 100%; viability, T/C [23]: 122%; viability, T/C [24]: 117%; viability, T/C [25]: 111%; viability, T/C [26]: 93.5%; viability, T/C [27]: 85.4%; viability, T/C [28]: 79%; viability, T/C [29]: 90.9%; viability, T/C [30]: 71%
